{
  "source": "patent US8344178B2",
  "about": "“Processes for producing and recovering shikimic acid” (priority 2007, dated 2013)",
  "key": {"[1]": {"test_system": "E. coli host strain LBB427 transformed with plasmid pXT1483", "assay": "Shikimic acid from a phosphate-limited high-density fermentation culture with glyphosate (Example 10)", "assay_type": "cell-based, Escherichia coli", "conditions": "optical density of 40; 20 millimolar; twelve hours after addition; sample at pH 1.0, 60 degrees Celsius for 15 minutes", "description": "The host strain LBB427 transformed with the plasmid pXT1483 can be grown to high optical densities in a phosphate-limited fermentation culture. Fermentations are conducted in a chemically-defined minimal medium containing 5.9 grams of anhydrous ammonium sulfate ((NH4)2SO4), 1.8 grams of anhydrous dibasic potassium phosphate (K2HPO4), 1.0 grams of monobasic sodium phosphate monohydrate (NaH2PO4—H2O), 550 milligrams of magnesium sulfate heptahydrate (MgSO4-7H2O), 27 milligrams of ferric chloride hexahydrate (FeCl3-6H2O), 0.5 milligrams of zinc sulfate heptahydrate (ZnSO4-7H2O), 0.9 milligrams of cobalt chloride hexahydrate (CoCl2-6H2O), 0.9 milligrams of sodium molybdate dihydrate (Na2MoO4-2H2O), 1.1 milligrams of cupric sulfate pentahydrate (CuSO4-5H2O), 0.3 milligrams of boric acid (H3BO3), and 0.7 milligrams of manganese sulfate monohydrate (MnSO4—H2O) per liter of water. The fermenter is maintained at 37 degrees Celsius. The pH is maintained at 7.0 by the controlled addition of concentrated (about 29%) ammonium hydroxide (NH4OH). […]\nTwelve hours after N-(phosphonomethyl)glycine addition, samples of the fermentation cultures are taken for analysis of shikimic acid levels. […] The cells are pelleted by centrifugation, and the culture supernatants are analyzed for shikimic acid content using the HPLC assay described in Example 5."}, "[2]": {"test_system": "Soybean", "assay": "Shikimate accumulation in soybean after glyphosate treatment (Example 2, FIG. 6)", "assay_type": "in vivo", "conditions": "ROUNDUP WEATHERMAX at 100, 200, 400 and 800 g a.e./ha; 1, 2, 3 and 4 days after treatment", "description": "(§1) Soybean plants were established in a greenhouse in 4 inch pots and treated with glyphosate at an early vegetative stage. Approximately 1 plant per pot was treated at the V2 growth stage. Plants were treated with ROUNDUP WEATHERMAX in a track sprayer, at 0, 100, 200, 400 and 800 g a.e./ha and returned to the greenhouse. All treatments were replicated 5 times. Leaves were harvested at five time points: immediately after spray (t0), and at 1, 2, 3 and 4 days after treatment. After harvest, leaves were frozen on dry ice, weighed, and then stored at −80 C until extraction and analysis.\n(§2) For t0 harvest, leaves were harvested immediately after treatment. For the 1, 2, 3 and 4 day harvest, plants were washed thoroughly with water from a spray hose and then allowed to dry before harvest. This procedure allowed for the measurement of the concentration of shikimic acid as well as an estimate of the concentration of glyphosate treatment (t0) and the amount of glyphosate absorbed and retained in treated leaves (1, 2, 3 and 4 days after treatment).\n(§3) Leaf tissue was ground frozen on dry ice to a frozen powder. […]\n(§4) Extract analysis was performed using both HPLC/MS and HPLC/uv (210 nm) detection. […] Shikimic acid was also analyzed on a separate Agilent 1100 HPLC system equipped with a 4.6 mm×250 mm, 5 micron ODS2 Waters Spherisorb® column (P/N PSS831915) using a photodiode array detector."}, "[3]": {"test_system": "Alfalfa", "assay": "Shikimate accumulation in alfalfa over time after glyphosate treatment (Example 1, FIG. 5)", "assay_type": "in vivo", "conditions": "ROUNDUP WEATHERMAX at 100, 200, 400 and 800 g a.e./ha; 1, 2, 3 and 4 days after treatment", "description": "as §1, with “Alfalfa was” for “Soybean plants were”, “8 plants” for “1 plant”, “were” for “was”, “V4” for “V2”\nas §2, §3, §4"}, "[4]": {"test_system": "E. coli host strain LBB427, untransformed or transformed with plasmid pXT1457 or pXT1483", "assay": "Growth of E. coli strains under phosphate-limiting conditions combined with glyphosate treatment (Example 9)", "assay_type": "cell-based, Escherichia coli", "conditions": "for Shikimic acid in the culture supernatant: phosphate-limitation, 20 millimolar, 21.5 hours after addition", "source_text": "A phosphate-limiting culture medium was developed by the Applicants, containing anhydrous magnesium sulfate (MgSO4) at 192 milligrams per liter, ammonium chloride (NH4Cl) at 5.35 grams per liter, potassium chloride (KCl) at 3.73 grams per liter, sodium chloride (NaCl) at 1.17 grams per liter, triethanolamine (a buffering compound) at 22.3 grams per liter, and glucose at 1.5 grams per liter. The pH of the culture medium was 7.0. […] This culture medium was designated PF culture medium (standing for phosphate-free culture medium). However, a phosphate-limiting medium may be formulated for use in the present invention such that, while not phosphate-free, it contains minimal amounts of phosphate (i.e., is substantially free of phosphate). […] Generally, such a phosphate-limiting medium should contain phosphate at levels no more than about 1 millimolar, and preferably at levels no more than about 100 micromolar.\nFor pre-growth of the strains, sources of phosphate were supplied to this culture medium in the form of Casamino acids at 2.2 grams per liter and yeast extract at 300 milligrams per liter. This culture medium was designated PF-CAA/YE culture medium (standing for PF culture medium plus Casamino acids and yeast extract).\nThe untransformed host strain LBB427 and the host strain LBB427 transformed with the plasmid pXT1457 or with the plasmid pXT1483 were grown initially in 50 milliliters of the PF-CAA/YE culture medium described in Example 8. For the strains of LBB427 transformed with the plasmid pXT1457 or with the plasmid pXT1483, ampicillin was included in the culture medium at 100 milligrams per liter. The cultures were grown for 2.5 hours in flasks, on an incubator shaker operating at 300 rpm and 37 degrees Celsius. The cells in these cultures were pelleted by centrifugation and resuspended in the same volume of the PF culture medium described in Example 8. For the strains of LBB427 transformed with the plasmid pXT1457 or with the plasmid pXT1483, ampicillin was included in the culture medium at 100 milligrams per liter. To these resuspended cultures, N-(phosphonomethyl)glycine was added to a concentration of 3.38 grams per liter (20 millimolar). […] At 24 hours after inoculation (i.e., 21.5 hours after N-(phosphonomethyl)glycine addition), the cells were pelleted by centrifugation, and the culture supernatants were analyzed for shikimic acid content using the HPLC assay described in Example 5.\nIt is possible that not all of the accumulated shikimate-3-phosphate in these cells had been converted into shikimic acid and excreted into the culture medium. […] The cells were pelleted by centrifugation, and the culture supernatant was analyzed for shikimic acid content using the HPLC assay described in Example 5."}, "[5]": {"test_system": "E. coli K-12 host strain LBB427, untransformed or transformed with plasmid pXT1457", "assay": "Treatment of E. coli strains with glyphosate in Vogel-Bonner minimal culture medium (Example 7)", "assay_type": "cell-based, Escherichia coli", "description": "To confirm that the new plasmid was functioning as expected, the wild-type E. coli K-12 host strain LBB427 was transformed with the plasmid pXT1457. Techniques for transforming bacteria, including strains of E. coli, are known in the art (Sambrook and Russell, 2001; Ausubel et al., 2005). The shikimic acid and phenylalanine production levels of this strain were compared to that of the untransformed host strain LBB427. The strains were cultured in 50 milliliters of Vogel-Bonner minimal culture medium (Vogel and Bonner, 1956), consisting of magnesium sulfate heptahydrate (MgSO4-7H2O) at 298 milligrams per liter, anhydrous dibasic potassium phosphate (K2HPO4) at 14.93 grams per liter, sodium ammonium phosphate tetrahydrate (NaNH4HPO4-4H2O) at 5.22 grams per liter, anhydrous citric acid (the free acid form) at 2.73 grams per liter, and glucose at 2.00 grams per liter. The pH of the culture medium was 7.0. For the strain LBB427 transformed with the plasmid pXT1457, ampicillin was included in the culture medium at 100 milligrams per liter. The cultures were grown in flasks, on an incubator shaker operating at 300 rpm and 37 degrees Celsius. At 24 hours after inoculation, the cells were pelleted by centrifugation, and the culture supernatants were analyzed by a high-pressure liquid chromatography (HPLC) assay for shikimic acid and phenylalanine content. To the samples to be assayed, phosphoric acid was added to a final concentration of 6 millimolar. The samples were injected onto a 0.5 centimeter by […] Altec 5 micron Bondapak C-18 column, and the eluate was scanned from 190 to 300 nanometers.\nThe untransformed host strain LBB427 and the host strain LBB427 transformed with the plasmid pXT1457 were grown in 50 milliliters of the Vogel-Bonner minimal culture medium described in Example 5. For the strain LBB427 transformed with the plasmid pXT1457, ampicillin was included in the culture medium at 100 milligrams per liter. The cultures were grown in flasks, on an incubator shaker operating at 300 rpm and 37 degrees Celsius. At 2.5 hours after inoculation, N-(phosphonomethyl)glycine was added to a concentration of 3.38 grams per liter (20 millimolar). […] At 24 hours after inoculation (i.e., 21.5 hours after N-(phosphonomethyl)glycine addition), the cells were pelleted by centrifugation, and the culture supernatants were analyzed for shikimic acid content using the HPLC assay described in Example 5. The culture supernatants of the host strain LBB427 transformed with the plasmid pXT1457 were also analyzed for phenylalanine content."}, "[6]": {"conditions": "LBB427 transformed with pXT1457, 20 millimolar, 21.5 hours after addition"}},
  "data": [
    {"compound": "O=C(O)CNCP(=O)(O)O", "note": "[glyphosate, N-(phosphonomethyl)glycine]", "values": [
      {"measurement": "Shikimic acid in the culture supernatant", "setting": "[1]", "result": "about 24 grams of shikimic acid per liter"},
      {"measurement": "Shikimic acid accumulation in soybean leaves", "setting": "[2]", "result": "accumulates to significantly high levels"},
      {"measurement": "Shikimic acid accumulation in alfalfa leaves over time", "setting": "[3]", "result": "accumulates to significantly high levels"},
      {"measurement": "Shikimic acid in the culture supernatant", "setting": "[4]; LBB427 transformed with pXT1457", "result": "about 250 milligrams of shikimic acid per OD unit per liter"},
      {"measurement": "Shikimic acid in the culture supernatant", "setting": "[4]; LBB427 transformed with pXT1483", "result": "about 400 milligrams of shikimic acid per OD unit per liter"},
      {"measurement": "Level of shikimic acid in the culture supernatant after acid and heat treatment of the culture sample", "setting": "[4]; LBB427 transformed with pXT1483, sample with cells adjusted to pH 1.0, 60 degrees Celsius for 15 minutes", "result": "about 600 milligrams per OD unit per liter"},
      {"measurement": "Shikimic acid in the culture supernatant", "setting": "[4]; untransformed host strain LBB427", "result": "about 200 milligrams of shikimic acid per OD unit per liter"},
      {"measurement": "Growth of the cultures", "setting": "[5]; 3.38 grams per liter (20 millimolar), added 2.5 hours after inoculation, LBB427 and LBB427 with pXT1457", "result": "almost completely inhibited"},
      {"measurement": "Phenylalanine in the culture supernatant", "setting": "[5]; [6]", "result": "about 50 milligrams of phenylalanine per OD unit per liter"},
      {"measurement": "Shikimic acid in the culture supernatant", "setting": "[5]; [6]", "result": "did not produce detectable levels"},
      {"measurement": "Shikimic acid in the culture supernatant", "setting": "[5]; untransformed host strain LBB427, 20 millimolar, 21.5 hours after addition", "result": "did not produce detectable levels"}
    ]}
  ]
}
